Reference: US9062013B2, “Positive allosteric modulators of the α7 nicotinic acetylcholine receptor and uses thereof” (Bionomics Limited, priority 2011, dated 2015)

System: scopolamine treated mice
Experiment: T-maze Continuous Alternation Task (T-CAT), scopolamine-induced cognitive impairment
Type: in vivo
Conditions: test compounds administered 60 min prior, scopolamine 20 min prior to the T-maze session
Excerpt: Scopolamine is a muscarinic receptor antagonist which is used as a standard/reference drug for inducing cognitive deficits in healthy humans and animals.
The T-maze Continuous Alternation Task (T-CAT) measures spontaneous alternation, which is the innate tendency of mice to alternate free choices in a T-maze over a series of successive runs. This sequential procedure relies on working memory and is sensitive to various pharmacological manipulations affecting memory processes.
The T-maze apparatus is made of gray Plexiglas with a main stem (55 cm long×10 cm wide×25 cm high) and two arms (30 cm long×10 cm wide×25 cm high) positioned at 90 degree angle relative to the main stem. A start box (15 cm long×10 cm wide) is separated from the main stem by a sliding door. Sliding doors are also provided to close specific arms during the forced-choice alternation task.
The experimental protocol consists of one single session, which starts with 1 “forced-choice” trial, followed by 14 “free-choice” trials. In the first “forced-choice” trial, the animal is confined for 5 s in the start arm and then it is released while either the left or right goal arm is blocked by a sliding door. The animal will negotiate the maze, eventually enter the open goal arm, and return to the start position. Immediately after the return to the start position, the left or right goal door is opened and the animal is allowed to choose freely between the left and right goal arm (“free choice” trials). The animal is considered to have entered an arm when it places its four paws in the arm. A session is terminated and the animal is removed from the maze as soon as 14 free-choice trials have been performed or 10 min have elapsed, whichever event occurs first. The percentage of alternation over the 14 free-choice trials is determined for each mouse and is used as an index of working memory performance. This percentage is defined as entry in a different arm of the T-maze over successive visits (i.e., left-right-left-right, etc). Scopolamine administered 20 min prior the initiation of the 1-maze session is used to induce disruption in the spontaneous alternation of mice. Test compounds are administered 60 min prior the start of the T-maze session in order to evaluate their ability to reverse the scopolamine effect.
The apparatus is cleaned between each animal using alcohol (70°). Urine and feces are removed from the maze. During the trials, animal handling and the visibility of the operator are minimized as much as possible.

Compound | improvement relative to the scopolamine treated mice (spontaneous alternation)
CC1(C)[C@H](C(=O)Nc2cc(C(F)(F)F)n[nH]2)[C@H]1c1ccc(S(N)(=O)=O)cc1 (relative stereo) [Example 2b, 2,2-Dimethyl-trans-3-(4-sulfamoylphenyl)-N-(3-(trifluoromethyl)-1H-pyrazol-5-yl)cyclopropanecarboxamide] | significant improvement
COc1ccc(Cl)cc1NC(=O)[C@@H]1[C@@H](c2ccc(S(N)(=O)=O)cc2)C1(C)C (relative stereo) [Example 4b, trans-N-(5-Chloro-2-methoxyphenyl)-2,2-dimethyl-3-(4-sulfamoylphenyl)cyclopropanecarboxamide] | significant improvement
COc1ccc(Cl)cc1NC(=O)[C@@H]1[C@@H](c2ccc(Cl)cc2)C1(C)C (relative stereo) [Example 5a, trans-N-(5-Chloro-2-methoxyphenyl)-3-(4-chlorophenyl)-2,2-dimethylcyclopropanecarboxamide] | significant improvement
COc1ccc(Cl)cc1NC(=O)[C@@H]1[C@@H](c2ccc(S(N)(=O)=O)cc2)C12CCCC2 (relative stereo) [Example 6b, trans-N-(5-Chloro-2-methoxyphenyl)-2-(4-sulfamoylphenyl)spiro[2.4]heptane-1-carboxamide] | significant improvement
NS(=O)(=O)c1ccc([C@@H]2[C@@H](C(=O)Nc3ccc(C(F)(F)F)cc3)C23CCCC3)cc1 (relative stereo) [Example 9b, trans-2-(4-sulfamoylphenyl)-N-(4-(trifluoromethyl)phenyl)spiro[2.4]heptane-1-carboxamide] | significant improvement
CC1(C)[C@H](C(=O)Nc2ccncc2)[C@H]1c1ccc(S(N)(=O)=O)cc1 (relative stereo) [Example 10b, 2,2-Dimethyl-trans-N-(pyridin-4-yl)-3-(4-sulfamoylphenyl)cyclopropanecarboxamide] | significant improvement

System: not given
Experiment: not given
Conditions: not given

Compound | melting point
COc1ccc(Cl)cc1NC(=O)[C@@H]1[C@@H](c2ccc(Cl)cc2)C1(C)C (relative stereo) [Example 5a, trans-N-(5-Chloro-2-methoxyphenyl)-3-(4-chlorophenyl)-2,2-dimethylcyclopropanecarboxamide] | 162 to 164 °C
COc1ccc(NC(=O)[C@@H]2[C@@H](c3ccccc3)C23CCCC3)c(OC)n1 (relative stereo) [Example 8a, trans-N-(2,6-dimethoxypyridin-3-yl)-2-phenylspiro[2.4]heptane-1-carboxamide] | 131 to 133 °C
O=C(Nc1ccc(C(F)(F)F)cc1)[C@@H]1[C@@H](c2ccccc2)C12CCCC2 (relative stereo) [Example 9a, trans-2-phenyl-N-(4-(trifluoromethyl)phenyl)spiro[2.4]heptane-1-carboxamide] | 171 to 173 °C
COc1ccc(Cl)cc1NC(=O)[C@@H]1[C@@H](c2ccc(Br)cc2)C1(C)C (relative stereo) [Example 12c, trans-N-(5-Chloro-2-methoxyphenyl)-3-(4-bromophenyl)-2,2-dimethylcyclopropanecarboxamide] | 170 to 172 °C
COc1ccc(Cl)cc1NC(=O)[C@@H]1[C@@H](c2cccc(C)c2)C1(C)C (relative stereo) [Example 17a, trans-N-(5-Chloro-2-methoxyphenyl)-2,2-dimethyl-3-m-tolyl-cyclopropanecarboxamide] | 148 to 150 °C
COc1ccc(Cl)cc1NC(=O)[C@@H]1[C@@H](c2ccc3c(c2)OC(F)(F)O3)C1(C)C (relative stereo) [Example 18d, trans-N-(5-Chloro-2-methoxyphenyl)-3-(2,2-difluoro-benzo[1,3]dioxol-5-yl)-2,2-dimethyl-cyclopropane carboxamide] | 120 to 122 °C
COc1ccc(Cl)cc1NC(=O)[C@@H]1[C@@H](c2ccccc2)C12CCCC2 [Example 6a, trans-N-(5-Chloro-2-methoxyphenyl)-2-phenylspirol[2.4]heptane-1-carboxamide] | 133 to 135 °C

Results, then the molecule that gave them:

melting point | Compound
132 to 135 °C | Cc1cnc(NC(=O)[C@@H]2[C@@H](c3ccccc3)C2(C)C)s1 (relative stereo) [Example 1a, 2,2-Dimethyl-trans-N-(5-methylthiazol-2-yl)-3-phenylcyclopropanecarboxamide]
68 to 71 °C | CC1(C)[C@H](C(=O)Nc2cc(C(F)(F)F)n[nH]2)[C@H]1c1ccccc1 (relative stereo) [Example 2a, 2,2-Dimethyl-trans-3-phenyl-N-(3-(trifluoromethyl)-1H-pyrazol-5-yl)cyclopropanecarboxamide]
160 to 162 °C | COc1cc(OC)c(NC(=O)[C@@H]2[C@@H](c3ccccc3)C2(C)C)cc1Cl (relative stereo) [Example 3a, trans-N-(5-Chloro-2,4-dimethoxyphenyl)-2,2-dimethyl-3-phenylcyclopropanecarboxamide]
155 to 157 °C | COc1ccc(Cl)cc1NC(=O)[C@@H]1[C@@H](c2ccccc2)C1(C)C (relative stereo) [Example 4a, trans-N-(5-Chloro-2-methoxyphenyl)-2,2-dimethyl-3-phenylcyclopropanecarboxamide]
152 to 154 °C | COc1ncccc1NC(=O)[C@@H]1[C@@H](c2ccccc2)C1(C)C (relative stereo) [Example 13a, trans-N-(2-methoxypyridin-3-yl)-2,2-dimethyl-3-phenylcyclopropanecarboxamide]
131 to 133 °C | O=C(Nc1ccc(C(F)(F)F)cc1Cl)[C@@H]1[C@@H](c2ccccc2)C12CCCC2 (relative stereo) [Example 15a, trans-2-phenyl-N-[2-chloro-4-(trifluoromethyl)phenyl]spiro[2.4]heptane-1-carboxamide]
110 to 113 °C | Cc1cccc([C@@H]2[C@@H](C(=O)Nc3ccc(F)c(F)c3)C2(C)C)c1 (relative stereo) [Example 16d, trans-N-(3,4-Difluoro-phenyl)-2,2-dimethyl-3-m-tolyl-cyclopropanecarboxamide]
